How the values were obtained:
[1] = Pharmacokinetics of single ascending doses (SAD Cohorts 1 and 2) in patients with stable HFrEF; assay type: in vivo, human
Excerpt: This example describes a study to establish preliminary safety and tolerability of single- and multiple-ascending oral doses of Compound I in ambulatory patients with stable heart failure with reduced ejection fraction (HFrEF). Key eligibility criteria included stable HFrEF of ischemic or nonischemic origin, treated with guideline-directed medical therapy (EF initial requirement during Screening was 20 to 45%, and was later changed by amendment to 15 to 35%). Subjects with active ischemia or severe or valvular heart disease were excluded. The study also aimed (1) to establish preliminary human PK of Compound I after single- and multiple-ascending oral doses of Compound I in patients with HFrEF; (2) to determine changes in left ventricular stroke volume (LVSV) derived from left ventricular outflow tract-velocity time integral (LVOT-VTI), left ventricular ejection fraction (LVEF) and change in left ventricular fractional shortening (LVFS) with Compound I after ascending single and multiple doses compared with Baseline and placebo as measured by transthoracic echocardiography (TTE); (3) to determine changes in systolic ejection time (SET) with Compound I after ascending single and multiple doses compared with Baseline and placebo as measured by TTE; and (4) to determine changes in pharmacodynamics (PD) dose/concentration effects (change in LVSV (derived from LVOT-VTI), LVEF, LVFS) with Compound I compared with Baseline and placebo after ascending single and multiple doses, as measured by TTE.
Part 1 was a randomized, crossover, DB, placebo-controlled, two-cohort, sequential ascending (oral) single-dose study in ambulatory patients with heart failure. All patients received placebo and 2 or 3 active doses of Compound I. Each patient underwent sequential, single-dose treatment events separated by no fewer than 5 days and no more than 14 days. Patients in Cohort 1 may also return for a fourth dosing period (open label) after the SRC reviews available data and recommends the dose. Patients enrolled prior to the implementation of Amendment 1 may be offered the opportunity to return for the open-label period. Patients in Cohort 2 participated in 2 to 4 dosing periods, based on SRC decision. Patients were randomized to one of the different dosing sequences outlined in FIG. 5A. Multiple patients could be dosed at the same time or during the same week depending on administrative issues, i.e., capacity and scheduling.
For each dosing period, patients were admitted to the clinical site on Day-1. Patients were assessed for absence of exclusion criteria (e.g., new lab abnormalities and/or conditions that indicate the patient is clinically unstable). They received Compound I or placebo in the morning of Day 1 followed by serial PK and PD assessments, as well as serial safety assessments. Patients were discharged on Day 3 (i.e., ˜48 hours following Day 1 dosing). An additional outpatient plasma PK sample was taken on the morning of Day 4 at 72 hours postdose.
Study medication consisted of Compound I 5 mg tablets, 25 mg tablets, 100 mg tablets, or matching placebo tablets. In Part 1 (SAD), Compound I or placebo was administered after an overnight fast (at least 6 hours), while in Part 2 (MAD), Compound I was administered after a 2 hour fast (Cohort A) or with food (Cohorts B, C, and D). The dose was ingested with a minimum of 240 mL of water, but more water was ingested as needed. The entire dose was administered over a period of up to 15 minutes. The time of dose used to determine future assessments was the time the last tablet was taken. In the cohorts for Part 2 (MAD), a BID regimen was used.
In Part 1 (SAD), patients fasted overnight (approximately 6 hours) through 4 hours postdose. With the exception of the water consumed with the dose, water could be ingested until approximately 1 hour prior to dosing and approximately 1 hour after dosing. If doses were split, subjects fasted 6 hours prior to the first half-dose. […]

[2] = tested on: patients with stable HFrEF; assay: TTE pharmacodynamics in SAD cohorts, patients with stable HFrEF; assay type: in vivo, human; conditions: Pooled SAD Cohorts 1 and 2
Description: PD assessment was done by transthoracic echocardiography as described in Example 1 above. TTE evaluations of LVSV (derived from LVOT-VTI), LVEF, LVFS, SET, and other parameters were PD assessments at predetermined time points. The patients were on bed rest for 10 minutes before the TTEs were obtained. In Part 2 (MAD), TTEs were usually obtained before the morning dose and/or at 7 hours postdose (i.e., close to the anticipated peak effect based on the PK profile from the healthy volunteer studies).
For both Cohorts 1 and 2, the pharmacodynamic effects of Compound I on echocardiographic markers of cardiac structure and function were analyzed by Compound I plasma concentration groups: <2000 ng/ml (low concentration group) and ≥2000 ng/ml (high concentration group) (Table 12).

[3] = plasma concentration group <2000 ng/mL (n = 7)
[4] = plasma concentration group ≥2000 ng/mL (n = 12)

Which “mean (SD) Cmax” value ([1]; 350 mg single dose, fasted) does the source give for `Cn1cc(S(=O)(=O)[C@@](C)(F)C2CCN(C(=O)Nc3ccon3)CC2)c(C(F)F)n1` [Compound I, (R)-4-(1-((3-(difluoromethyl)-1-methyl-1H-pyrazol-4-yl)sulfonyl)-1-fluoroethyl)-N-(isoxazol-3-yl) piperidine-1-carboxamide] here?
The value was 2760 (856) ng/mL.

And the “AUC0-∞” value ([1]; SAD Cohort 1, 175 mg (n = 8))?
Its value is 53,800 hr × ng/mL.

What about the “AUC0-∞” value ([1]; SAD Cohort 1, 350 mg (n = 8)) of the same compound?
The value was 103,000 hr × ng/mL.

What about the Cmax ([1]; SAD Cohort 1, 350 mg (n = 8)) of the same compound?
The Cmax was 2760 ng/mL.

And the “AUC0-∞” value ([1]; SAD Cohort 1, 525 mg (n = 2))?
Its value is 127,000 hr × ng/mL.

What about the AUC0-24 ([1]; SAD Cohort 1, 4th dose 350 mg (n = 1)) of the same compound?
Its AUC0-24 is 70,100 hr × ng/mL.

What about the “A wave peak, placebo-corrected mean change from Baseline (LS mean difference)” value [2, 3] of the same compound?
Its value is -3.2 cm/s.

What about the “E wave peak, placebo-corrected mean change from Baseline (LS mean difference)” value [2, 3] of the same compound?
Its value is -1.1 cm/s.

What about the “E/A ratio, placebo-corrected mean change from Baseline (LS mean difference)” value [2, 3] of the same compound?
Its value is 0.09.

What about the “E/e′ lateral, placebo-corrected mean change from Baseline (LS mean difference)” value [2, 3] of the same compound?
The value was 0.6.

And the “LVEDD, placebo-corrected mean change from Baseline (LS mean difference)” value [2, 3]?
Its value is 0.2 mm.

And the “LVEDV, placebo-corrected mean change from Baseline (LS mean difference)” value [2, 3]?
The value was -2.5 mL.

And the “LVEF, placebo-corrected mean change from Baseline (LS mean difference)” value [2, 3]?
The value was 4.1%.

And the “LVESD, placebo-corrected mean change from Baseline (LS mean difference)” value [2, 3]?
The value was −1.3 mm.

What about the “LVESV, placebo-corrected mean change from Baseline (LS mean difference)” value [2, 3] of the same compound?
Its value is -4.0 mL.

And the “LVFS, placebo-corrected mean change from Baseline (LS mean difference)” value [2, 3]?
Its value is 3.1%.

And the “LVGLS, placebo-corrected mean change from Baseline (LS mean difference)” value [2, 3]?
The value was −1.1%.

And the “LVSV, placebo-corrected mean change from Baseline (LS mean difference)” value [2, 3]?
Its value is 1.0 mL.

What about the “SET, placebo-corrected mean change from Baseline (LS mean difference)” value [2, 3] of the same compound?
Its value is 8 ms.

What about the e′ lateral, placebo-corrected mean change from Baseline (LS mean difference) [2, 3] of the same compound?
Its e′ lateral, placebo-corrected mean change from Baseline (LS mean difference) is -1 cm/s.

And the “A wave peak, placebo-corrected mean change from Baseline (LS mean difference)” value [2, 4]?
The value was -8.8 cm/s.

And the “E wave peak, placebo-corrected mean change from Baseline (LS mean difference)” value [2, 4]?
Its value is -1.6 cm/s.

And the “E/A ratio, placebo-corrected mean change from Baseline (LS mean difference)” value [2, 4]?
Its value is 0.08.

What about the “E/e′ lateral, placebo-corrected mean change from Baseline (LS mean difference)” value [2, 4] of the same compound?
Its value is 0.2.

And the “LVEDD, placebo-corrected mean change from Baseline (LS mean difference)” value [2, 4]?
Its value is −0.3 mm.

And the “LVEDV, placebo-corrected mean change from Baseline (LS mean difference)” value [2, 4]?
Its value is -1.9 mL.

And the “LVEF, placebo-corrected mean change from Baseline (LS mean difference)” value [2, 4]?
The value was 4.4%.

And the “LVESD, placebo-corrected mean change from Baseline (LS mean difference)” value [2, 4]?
The value was −1.8 mm.

And the “LVESV, placebo-corrected mean change from Baseline (LS mean difference)” value [2, 4]?
Its value is -3.5 mL.

And the “LVFS, placebo-corrected mean change from Baseline (LS mean difference)” value [2, 4]?
Its value is 2.8%.

And the “LVGLS, placebo-corrected mean change from Baseline (LS mean difference)” value [2, 4]?
The value was −2.1%.

And the “LVSV, placebo-corrected mean change from Baseline (LS mean difference)” value [2, 4]?
The value was 9.0 mL.

What about the “SET, placebo-corrected mean change from Baseline (LS mean difference)” value [2, 4] of the same compound?
The value was 36 ms.

What about the e′ lateral, placebo-corrected mean change from Baseline (LS mean difference) [2, 4] of the same compound?
The e′ lateral, placebo-corrected mean change from Baseline (LS mean difference) was -1 cm/s.

From patent US20250325531A1, “TREATMENT OF SYSTOLIC DYSFUNCTION” (MyoKardia, Inc., priority 2024, published 2025)
